Results reported in ChEMBL document CHEMBL1773001, “Broad-spectrum antiviral activity including human immunodeficiency and hepatitis C viruses mediated by a novel retinoid thiosemicarbazone derivative” (Eur J Med Chem, 2011).
Activity calls are given as the source filed them. No cut-off for these calls is given here.

Legend:
[1] = Selectivity index, ratio of CC50 for human HFF cells infected with Cowpox virus (Brighton Red) to EC50 for Cowpox virus (Brighton Red); type: toxicity, cell-based; conditions: read-out: Selectivity Index
Hepatitis C virus [2] = assay: Antiviral activity against Hepatitis C virus infected in human Huh7ET cells assessed as viral RNA level by RT-PCR; type: functional, organism-based; conditions: Huh-7; for Activity: Hepacivirus hominis
Hepatitis C virus [3] = assay: Antiviral activity against Hepatitis C virus infected in human Huh7ET cells assessed as inhibition of viral replication by luciferase reporter gene assay; type: functional, organism-based, Hepacivirus hominis; conditions: Huh-7
[4] = Selectivity index, ratio of CC50 for human HFF cells infected with […] to EC50 for Varicella-zoster virus Ellen; type: toxicity, cell-based; conditions: read-out: Selectivity Index
Human betaherpesvirus 5 [5] = assay: Antiviral activity against Human cytomegalovirus (strain AD169) infected in 1 hr pretreated human HFF cells assessed as reduction in viral-induced cytopathic effect by neutral red uptake assay; type: functional, organism-based; conditions: Human betaherpesvirus 5, AD169, HFF
Human alphaherpesvirus 3 [6] = assay: Antiviral activity against Varicella-zoster virus Ellen infected in 1 hr pretreated human HFF cells assessed as reduction in viral-induced cytopathic effect by neutral red uptake assay; type: functional, organism-based; conditions: Human alphaherpesvirus 3, Ellen
[7] = Selectivity index, ratio of CC50 for human HFF cells infected with Cowpox virus (Brighton Red) to EC50 for Vaccinia virus Copenhagen; type: toxicity, cell-based; conditions: read-out: Selectivity Index
[8] = Antiviral activity against Cowpox virus (Brighton Red) infected in human HFF cells assessed as reduction in viral-induced cytopathic effect by neutral red uptake assay; type: functional, cell-based
[9] = Cytotoxicity against human HFF cells infected with Vaccinia virus Copenhagen assessed as viable cells by neutral red uptake assay; type: cell-based
[10] = Cytotoxicity against human HFF cells infected with Human cytomegalovirus AD169 assessed as viable cells by neutral red uptake assay; type: cell-based
[11] = Cytotoxicity against human HFF cells infected with Varicella-zoster virus Ellen assessed as viable cells by neutral red uptake assay; type: cell-based
Vaccinia virus = assay: Antiviral activity against Vaccinia virus Copenhagen infected in human HFF cells assessed as reduction in viral-induced cytopathic effect by neutral red uptake assay; type: functional, organism-based, Orthopoxvirus vaccinia
[12] = Cytotoxicity against human HFF cells infected with Cowpox virus (Brighton Red) assessed as viable cells by neutral red uptake assay; type: cell-based
[13] = Selectivity index, ratio of CC50 for human Huh7ET cells infected with Hepatitis C virus to EC50 for Hepatitis C virus by luciferase reporter gene assay; type: toxicity, cell-based, Huh-7; conditions: read-out: Selectivity Index
[14] = test system: Human immunodeficiency virus 1; assay: Antiviral activity against Human immunodeficiency virus 1 LAV1 assessed as reduction in RT activity by [3H]-dTTP incorporation assay; type: functional, organism-based
[15] = Cytotoxicity against human HFF cells infected with Varicella-zoster virus Ellen assessed as viable cells after 1 hr by plaque reduction assay; type: cell-based
[16] = Selectivity index, ratio of CC50 for human PBMC infected with Human immunodeficiency virus 1 LAV1 to EC50 for Human immunodeficiency virus 1 LAV1
Human betaherpesvirus 5 [17] = assay: Antiviral activity against Human cytomegalovirus (strain AD169) infected in human HFF cells assessed inhibition of viral replication after 1 hr by plaque reduction assay; type: functional, organism-based; conditions: Human betaherpesvirus 5, AD169, HFF
[18] = Cytotoxicity against human PBMC infected with Human immunodeficiency virus 1 LAV1 by MTS assay; type: cell-based
[19] = Selectivity index, ratio of CC50 for human HFF cells infected with […] to EC50 for Varicella-zoster virus Ellen after 1 hr by plaque reduction assay; type: toxicity, cell-based; conditions: read-out: Selectivity Index
[20] = Selectivity index, ratio of CC50 for human Huh7ET cells infected with Hepatitis C virus to EC50 for Hepatitis C virus by RT-PCR; type: toxicity, cell-based, Huh-7; conditions: read-out: Selectivity Index
Human alphaherpesvirus 3 [21] = assay: Antiviral activity against Varicella-zoster virus Ellen infected in human HFF cells assessed as inhibition of viral replication after 1 hr by plaque reduction assay; type: functional, organism-based; conditions: Human alphaherpesvirus 3, Ellen
[22] = Cytotoxicity against human HFF cells infected with Human cytomegalovirus AD169 assessed as viable cells after 1 hr by plaque reduction assay; type: cell-based
[23] = Selectivity index, ratio of CC90 for human Huh7ET cells infected with Hepatitis C virus to EC90 for Hepatitis C virus by RT-PCR; type: toxicity, cell-based, Huh-7; conditions: read-out: Selectivity Index
[24] = Cytotoxicity against human Huh7ET cells infected with Hepatitis C virus assessed as ribosomal RNA level by RT-PCR; type: cell-based, Huh-7
[25] = Selectivity index, ratio of CC90 for human Huh7ET cells infected with Hepatitis C virus to EC90 for Hepatitis C virus by luciferase reporter gene assay; type: toxicity, cell-based, Huh-7; conditions: read-out: Selectivity Index
[26] = Selectivity index, ratio of CC50 for human HFF cells infected with […] to EC50 for Human cytomegalovirus AD169 after 1 hr by plaque reduction assay; type: toxicity, cell-based; conditions: read-out: Selectivity Index
Hepatitis C virus [27] = assay: Antiviral activity against Hepatitis C virus infected in human Huh7ET cells assessed as inhibition of viral replication at 20 uM by luciferase reporter gene assay; type: functional, Hepacivirus hominis; conditions: Huh-7
[28] = Selectivity index, ratio of CC50 for human HFF cells infected with […] to EC50 for Human cytomegalovirus AD169; type: toxicity, cell-based; conditions: read-out: Selectivity Index
[29] = Orthopoxvirus vaccinia, Copenhagen, HFF
[30] = Orthopoxvirus vaccinia, Copenhagen, HFF, read-out: EC50

Row | SMILES | selectivity ratio [1] | EC50 (Hepatitis C virus [3]) [µM] | EC90 (Hepatitis C virus [3]) [µM] | EC50 (Human betaherpesvirus 5 [5]) [µM] | EC90 (Human betaherpesvirus 5 [5]) [µM] | EC50 (Human alphaherpesvirus 3 [6]) [µM] | selectivity ratio [7] | EC50 [8] [µM] | EC90 [8] [µM] | CC50 [9] [µM] | CC50 [10] [µM] | CC50 [11] [µM] | EC90 (Vaccinia virus; [29]) [µM] | EC50 (Vaccinia virus; [30]) [µM] | CC50 [12] [µM] | selectivity ratio [13] | EC50 (Hepatitis C virus [2]) [µM] | EC90 (Hepatitis C virus [2]) [µM] | selectivity ratio [20] | CC50 [24] [µM] | also measured
1 | CN(C)c1ccc(/C=N/N=c2\[nH]c(-c3ccc(F)cc3)cs2)cc1 | > 8.3 | 6.32 | > 20 | > 300 | > 300 | 16.6 | > 4.1 | 36 | > 300 | > 300 | > 300 | > 300 | 84.9 | 73.6 | > 300 | > 3.2 |  |  |  |  | Activity (Hepatitis C virus [2]): inactive; selectivity ratio [4]: > 18.1; EC90 (Human alphaherpesvirus 3 [6]): 26.5 µM
2 | Nc1nc2c(ncn2COCCO)c(=O)[nH]1 [ACYCLOVIR] |  |  |  |  |  | 1.1 |  |  |  |  |  | > 100 |  |  |  |  |  |  |  |  | selectivity ratio [4]: > 90.9; EC90 (Vaccinia virus; Orthopoxvirus vaccinia): inactive; EC50 (Vaccinia virus; hff): Not Active
3 | CC1=C(/C=C/C(C)=C/C=C/C(C)=C/C=N/[N-]C(=S)[N-]C(=S)[N-]/N=C/C=C(C)/C=C/C=C(C)/C=C/C2=C(C)CCCC2(C)C)C(C)(C)CCC1.O.[Na+].[Na+].[Na+] | < 4.9 | 0.85 | 4 |  |  |  | > 4.9 | > 2.4 | > 2.4 | 11.8 |  |  | > 2.4 | > 2.4 | 11.8 | 15.2 | 0.36 | 1.97 | 31 | 11.2 | EC50 [14]: 1.4 µM; EC90 [14]: 6.5 µM; CC50 at 1 h [15]: 33.3 µM; Selectivity Index [16]: 5.2; EC50 (Human betaherpesvirus 5 [17]): 2.4 µM; EC90 (Human betaherpesvirus 5 [17]): > 4 µM; CC50 [18]: 28.5 µM; selectivity ratio at 1 h [19]: 7.1; EC50 (Human alphaherpesvirus 3 [21]): 4.7 µM; EC90 (Human alphaherpesvirus 3 [21]): 17 µM; CC50 at 1 h [22]: 13.6 µM; selectivity ratio [23]: > 10.2; CC90 [24]: > 20 µM; selectivity ratio [25]: > 5; selectivity ratio at 1 h [26]: 5.7
4 | CCCCCCCCCCCCCCS/C(N)=N/N=C/c1ccc(N(C)C)cc1 |  |  |  |  |  |  |  |  |  |  |  |  |  |  |  |  |  |  |  |  | Activity (Hepatitis C virus [2]): inactive; inhibition at 20 µM (Hepatitis C virus [27]): 31.4%
5 | Cc1cn([C@H]2C[C@H](N=[N+]=[N-])[C@@H](CO)O2)c(=O)[nH]c1=O [ZIDOVUDINE] |  |  |  |  |  |  |  |  |  |  |  |  |  |  |  |  |  |  |  |  | EC50 [14]: 0.0044 µM; EC90 [14]: 0.031 µM; Selectivity Index [16]: >22727; CC50 [18]: > 100 µM
6 | Nc1nc(O)c2ncn(COC(CO)CO)c2n1 [GANCICLOVIR] |  |  |  |  |  |  |  |  |  |  | > 100 |  |  |  |  |  |  |  |  |  | selectivity ratio [28]: > 2500
7 | NC(=S)N/N=C/c1ccc(Br)cc1F | > 2.6 | 0.28 | 5.93 | > 300 | > 300 | > 300 | > 2.7 | 115 | 294 | > 300 | > 300 | > 300 | 239 | 110 | > 300 | > 71.4 | 0.25 | > 20 | 48.8 | ≥ 12.2 | EC90 (Human alphaherpesvirus 3 [6]): > 300 µM; CC90 [24]: > 20 µM; selectivity ratio [25]: > 3.4
8 | Nc1nc2c(ncn2COC(CO)CO)c(=O)[nH]1 [GANCICLOVIR] |  |  |  | 0.04 |  |  |  |  |  |  |  |  |  |  |  |  |  |  |  |  | EC90 (Vaccinia virus; Orthopoxvirus vaccinia): inactive; EC50 (Vaccinia virus; hff): Not Active
9 | Nc1ccn(C[C@@H](CO)OCP(=O)(O)O)c(=O)n1 [CIDOFOVIR] | > 47.3 |  |  |  |  |  | > 32.3 | 6.7 | 18.4 | > 317 |  |  | 20 | 9.8 | > 317 |  |  |  |  |  | 
10 | NC(=S)N/N=C/c1ccc(OC(F)(F)F)cc1 | > 5.5 | 0.08 | 0.5 | > 60 | > 60 |  | > 1.2 | 54.3 | > 300 | > 300 | 290 |  | > 300 | 250 | > 300 | 111 | 0.08 | 0.61 | 18 | 1.44 | selectivity ratio [28]: < 4.8; selectivity ratio [23]: 8.3; CC90 [24]: ≥ 5.08 µM; selectivity ratio [25]: > 40
